Values quoted from earlier work as cited in patent US9717712B2, “Combinations comprising tricyclohexadecahexaene derivatives for use in the treatment of hepatitis C virus” (BRISTOL-MYERS SQUIBB COMPANY, priority 2013, dated 2017).
pEC50: −log10 of the molar value. Read-outs that look alike come from different tables or passages of the source.

Tested on: HCV genotype 1a variant with glutamine 30 changed to glutamate in the NS5A protein (Q30E)
Conditions: genotype 1a Q30E replicon
[1] = single agent, read-out: EC50, compound titrated singly

Structure (SMILES)	pEC50 (BMS-790052 fixed at 200 nM, read-out: EC50 of P-55 in the presence of a fixed amount of BMS-790052)	synergistic inhibitory effect for the combination (P-55 titrated with BMS-790052 fixed at 200 nM)	pEC50 [1]	reciprocal synergistic inhibitory effect for the combination (BMS-790052 titrated with P-55 fixed at 200 nM)	pEC50 (P-55 fixed at 200 nM, read-out: EC50 of BMS-790052 in the presence of a fixed amount of P-55)
CC(C)CC(=O)N[C@H](c1ncc(-c2ccc(-c3ccc(-c4cnc([C@@H](NC(=O)CC(C)C)C(C)C)[nH]4)cc3)cc2)[nH]1)C(C)C [Compound P-55]	~8.70	> 100 fold	< 6.70	–	–
COC(=O)N[C@H](C(=O)N1CCC[C@H]1c1nc(-c2ccc(-c3ccc(-c4c[nH]c([C@@H]5CCCN5C(=O)[C@@H](NC(=O)OC)C(C)C)n4)cc3)cc2)c[nH]1)C(C)C [BMS-790052]	–	–	~6.70	~100 fold	~8.70
